Several values for one entry are separate records, joined by “and”; a condition that tells them apart may be missing. Identical values can stand only once. Results filed as inconclusive are left out.
System: BDF1 mice, colon carcinoma 38 sc, T/C %
Test: NCI In Vivo Anticancer Drug Screen. Data for tumor model Colon Carcinoma 38 (subcutaneous) in B6D2F1 (BDF1) mice
Conditions: endpoint: median tumor weight (est.), schedule: Q07DX002 (ip), higher = larger tumour
Summary of the method: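 Ratio of survival or tumor size, compound-treated animals relative to vehicle controls, in tumor-bearing mice.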

[1] = dose: 3.12 mg/kg/injection, vehicle: saline with Tween-80
[2] = dose: 12.5 mg/kg/injection, vehicle: saline with Tween-80
[3] = dose: 25.0 mg/kg/injection, vehicle: saline with Tween-80
[4] = dose: 50.0 mg/kg/injection, vehicle: saline with Tween-80
[5] = dose: 25.0 mg/kg/injection, vehicle: saline
[6] = dose: 50.0 mg/kg/injection, vehicle: saline
[7] = dose: 200.0 mg/kg/injection, vehicle: saline
[8] = dose: 400.0 mg/kg/injection, vehicle: saline
[9] = dose: 400.0 mg/kg/injection, vehicle: saline with Tween-80
[10] = dose: 25.0 mg/kg/injection, vehicle: Klucel (hydroxypropylcellulose) (HPC)
[11] = dose: 50.0 mg/kg/injection, vehicle: Klucel (hydroxypropylcellulose) (HPC)
[12] = dose: 100.0 mg/kg/injection, vehicle: Klucel (hydroxypropylcellulose) (HPC)
[13] = dose: 100.0 mg/kg/injection, vehicle: saline with Tween-80
[14] = dose: 200.0 mg/kg/injection, vehicle: saline with Tween-80
[15] = dose: 800.0 mg/kg/injection, vehicle: saline with Tween-80
[16] = dose: 100.0 mg/kg/injection, vehicle: saline

O=c1s[se]c2ccccc12
T/C [1]: 73 % of control
T/C [2]: 90 % of control
T/C [3]: 83 % of control
T/C [4]: 117 % of control

COC(=O)c1ccoc1
T/C [5]: 105 % of control
T/C [6]: 94 % of control
T/C [7]: 118 % of control
T/C [8]: 112 % of control

O=C1OCC2(C(=O)O)C(=O)OCC12 (stereo not drawn)
T/C [1]: 124 % of control
T/C (dose: 6.25 mg/kg/injection, vehicle: saline with Tween-80): 87 % of control
T/C [3]: 70 % of control and 86 % of control
T/C [4]: 109 % of control
T/C [9]: 158 % of control

COCCCNC1=C(C#N)C(=O)NC(c2cccc([N+](=O)[O-])c2)S1 (stereo not drawn)
T/C [2]: 97 % of control
T/C [3]: 95 % of control
T/C [4]: 108 % of control

CSc1ccc2c(c1)C(N1CCN(C)CC1)Cc1ccccc1S2 (stereo not drawn)
T/C [4]: 68 % of control and 72 % of control

O=C(O)CSc1c(Cl)c(=O)oc2ccc(Cl)cc12
T/C [10]: 93 % of control
T/C [11]: 113 % of control
T/C [12]: 81 % of control
T/C (dose: 200.0 mg/kg/injection, vehicle: Klucel (hydroxypropylcellulose) (HPC)): 120 % of control

CC(C#N)(C#N)N=Nc1ccc(Cl)cc1Cl
T/C [3]: 86 % of control and 101 % of control
T/C [4]: 50 % of control and 69 % of control
T/C [13]: 66 % of control and 73 % of control
T/C [14]: 58 % of control and 64 % of control
T/C [15]: 63 % of control and 78 % of control

COC1C(/C=C/C(C)=O)OC2OC(C)(C)OC21 (stereo not drawn)
T/C [16]: 114 % of control and 98 % of control

Nc1nc(-c2cccc3ccccc23)cc2ccccc12
T/C [3]: 108 % of control
T/C [4]: 123 % of control
T/C [14]: 77 % of control
T/C [15]: 108 % of control

C/C=C/C=C1/OC(C)=C(C(C)=O)C1=O
T/C [3]: 59 % of control and 84 % of control
T/C [14]: 54 % of control and 57 % of control and 69 % of control
T/C [9]: 37 % of control and 62 % of control
T/C [15]: 100 % of control

O=C(Nc1ccccc1C(=O)O)c1cc([N+](=O)[O-])cc([N+](=O)[O-])c1
T/C [3]: 110 % of control and 88 % of control
T/C [4]: 78 % of control and 85 % of control
T/C [13]: 69 % of control
T/C [14]: 83 % of control and 86 % of control

C[Si](C)(C)OSc1ccccc1[N+](=O)[O-]
T/C [10]: 118 % of control
T/C [11]: 113 % of control
T/C [12]: 110 % of control
T/C (dose: 800.0 mg/kg/injection, vehicle: Klucel (hydroxypropylcellulose) (HPC)): 86 % of control

Nc1nc2c(ncn2C2OC(CO)C(O)C2O)c(=O)[nH]1 (stereo not drawn)
T/C (dose: 100.0 mg/kg/injection, vehicle: suspension in saline): 100 % of control
T/C (dose: 200.0 mg/kg/injection, vehicle: suspension in saline): 117 % of control
T/C (dose: 400.0 mg/kg/injection, vehicle: suspension in saline): 94 % of control
T/C (dose: 800.0 mg/kg/injection, vehicle: suspension in saline): 105 % of control
T/C (dose: 1600.0 mg/kg/injection, vehicle: suspension in saline): 90 % of control

O=C1N(CC2CO2)CCN1CC1CO1 (stereo not drawn)
T/C [5]: 39 % of control
T/C [6]: 26 % of control
T/C [16]: 41 % of control
T/C [7]: 41 % of control
T/C [8]: 29 % of control

Reference: PubChem BioAssay AID212 (DTP/NCI, 2004)
